Patent US20250163104A1, “MACROCYCLIC IMMUNOMODULATORS” (priority 2021, published 2025)
Where a SMILES comes first, the peptide text is derived from it. Bridges are numbered along the chain shown (N, C = ends). [ ]: non-standard residue; d: D form. The star is where a group is joined. Phe(3-CF3) = N[C@@H](Cc1cccc(C(F)(F)F)c1)C(=O)O; Phe(2,4-Cl2) = N[C@@H](Cc1ccc(Cl)cc1Cl)C(=O)O; Phe(3,5-F2) = N[C@@H](Cc1cc(F)cc(F)c1)C(=O)O; Phe(2,4-F2) = N[C@@H](Cc1ccc(F)cc1F)C(=O)O; Bip = N[C@@H](Cc1ccc(-c2ccccc2)cc1)C(=O)O; Phe(3-OMe) = COc1cccc(C[C@H](N)C(=O)O)c1; Phe(4-Cl) = N[C@@H](Cc1ccc(Cl)cc1)C(=O)O; Phe(4-NH2) = Nc1ccc(C[C@H](N)C(=O)O)cc1; Phe(3-Me) = Cc1cccc(C[C@H](N)C(=O)O)c1; Phe(4-Me) = Cc1ccc(C[C@H](N)C(=O)O)cc1; mTyr = N[C@@H](Cc1cccc(O)c1)C(=O)O; Cha = N[C@@H](CC1CCCCC1)C(=O)O; Carboxymethyl = O=C(O)C*; Orn = NCCC[C@H](N)C(=O)O; Dab = NCC[C@H](N)C(=O)O; Dap = NC[C@H](N)C(=O)O

These compounds were tested against T1, human PD-1 / PD-L1-Ig binding on Jurkat cell line over-expressing human PD-1 (Jurkat-PD-1) (Homo sapiens, UniProt Q15116) (assay: Jurkat-PD-1 Cell Binding High-Content Screening Assay (CBA)). Details: Jurkat-PD-1 cells, PE-labeled PD-L1-Ig 20 nM final; read-out: Jurkat HPD1_PDL1 IC50.
T1 construct: expressed in transfected cells; host or cells: Jurkat
T1 sequence (Q15116 25-288): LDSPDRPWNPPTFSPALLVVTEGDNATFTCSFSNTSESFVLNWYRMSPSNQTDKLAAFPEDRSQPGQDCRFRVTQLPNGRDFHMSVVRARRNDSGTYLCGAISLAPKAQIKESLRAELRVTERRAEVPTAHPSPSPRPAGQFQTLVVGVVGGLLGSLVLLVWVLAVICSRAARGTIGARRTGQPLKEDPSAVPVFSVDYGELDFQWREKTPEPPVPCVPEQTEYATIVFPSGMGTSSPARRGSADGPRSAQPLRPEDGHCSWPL
Assay type: cell-based
Summary of the method: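 PE-PD-L1-Ig 20 nM final; cells in DMEM/10% FCS; cpd pre-incubation 2 h, 37° C; ligand 1 h; PFA fix + Hoechst 33342; high-content imaging read-out.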

| IC50 | SMILES |
| --- | --- |
| 27.4 nM | CC(C)C[C@H]1NC(=O)[C@H](CCCN)NC(=O)[C@H](CCC(=O)O)NC(=O)[C@H](Cc2ccc(-c3ccccc3)cc2)NC(=O)[C@H](C(C)C)NC(=O)[C@H](Cc2cccc(C(F)(F)F)c2)NC(=O)[C@H](CC(=O)O)NC(=O)[C@H](Cc2ccc(OCC(=O)O)cc2)NC(=O)[C@H](Cc2ccc(OCC(=O)O)cc2)NC(=O)CSC[C@@H](C(=O)N[C@@H](C)C(N)=O)NC(=O)[C@H]([C@@H](C)O)NC(=O)[C@H](C(C)C)NC(=O)[C@H](CC2CCCCC2)NC(=O)[C@H](CCN)NC1=O [Compound 1465] |
| 16.3 nM | COc1cccc(C[C@@H]2NC(=O)[C@H](CC(=O)O)NC(=O)[C@H](Cc3ccc(O)cc3)NC(=O)[C@H](CC(N)=O)NC(=O)CSC[C@@H](C(=O)N[C@@H](C)C(N)=O)NC(=O)[C@H]([C@@H](C)O)NC(=O)[C@H](C(C)C)NC(=O)[C@H](CC3CCCCC3)NC(=O)[C@H](CCN)NC(=O)[C@@H](CC(C)C)NC(=O)[C@H](CCCN)NC(=O)[C@H](CCC(=O)O)NC(=O)[C@H](Cc3ccc(-c4ccccc4)cc3)NC(=O)[C@H](C(C)C)NC2=O)c1 [Compound 1466] ({CH2CO}-NYD[Phe(3-OMe)]V[Bip]E[Orn][dL][Dab][Cha]VTCA-NH2; thioether N-14) |
| 112 nM | COc1cccc(C[C@@H]2NC(=O)[C@H](CC(=O)O)NC(=O)[C@H](Cc3ccc(OCC(=O)O)cc3)NC(=O)[C@H](CN)NC(=O)CSC[C@@H](C(=O)N[C@@H](C)C(N)=O)NC(=O)[C@H]([C@@H](C)O)NC(=O)[C@H](C(C)C)NC(=O)[C@H](CC3CCCCC3)NC(=O)[C@H](CCN)NC(=O)[C@@H](CC(C)C)NC(=O)[C@H](CCCN)NC(=O)[C@H](CCC(=O)O)NC(=O)[C@H](Cc3ccc(-c4ccccc4)cc3)NC(=O)[C@H](C(C)C)NC2=O)c1 [Compound 1467] |
| 73.5 nM | CC(C)C[C@H]1NC(=O)[C@H](CCCN)NC(=O)[C@H](CCC(=O)O)NC(=O)[C@H](Cc2ccc(-c3ccccc3)cc2)NC(=O)[C@H](C(C)C)NC(=O)[C@H](Cc2c[nH]c3ccccc23)NC(=O)[C@H](CC(=O)O)NC(=O)[C@H](Cc2ccc(OCC(=O)O)cc2)NC(=O)[C@H](CN)NC(=O)CSC[C@@H](C(=O)N[C@@H](C)C(N)=O)NC(=O)[C@H]([C@@H](C)O)NC(=O)[C@H](C(C)C)NC(=O)[C@H](Cc2cccc(C(F)(F)F)c2)NC(=O)[C@H](CCN)NC1=O [Compound 1468] ({CH2CO}-[Dap]Y(Carboxymethyl)DWV[Bip]E[Orn][dL][Dab][Phe(3-CF3)]VTCA-NH2; thioether N-14) |
| 29.6 nM | COc1cccc(C[C@@H]2NC(=O)[C@H](CCN)NC(=O)[C@@H](CC(C)C)NC(=O)[C@H](CCCN)NC(=O)[C@H](CCC(=O)O)NC(=O)[C@H](Cc3ccc(-c4ccccc4)cc3)NC(=O)[C@H](C(C)C)NC(=O)[C@H](Cc3c[nH]c4ccccc34)NC(=O)[C@H](CC(=O)O)NC(=O)[C@H](Cc3ccc(OCC(=O)O)cc3)NC(=O)[C@H](CN)NC(=O)CSC[C@@H](C(=O)N[C@@H](C)C(N)=O)NC(=O)[C@H]([C@@H](C)O)NC(=O)[C@H](C(C)C)NC2=O)c1 [Compound 1469] ({CH2CO}-[Dap]Y(Carboxymethyl)DWV[Bip]E[Orn][dL][Dab][Phe(3-OMe)]VTCA-NH2; thioether N-14) |
| 54.6 nM | Cc1cccc(C[C@@H]2NC(=O)[C@H](CCN)NC(=O)[C@@H](CC(C)C)NC(=O)[C@H](CCCN)NC(=O)[C@H](CCC(=O)O)NC(=O)[C@H](Cc3ccc(-c4ccccc4)cc3)NC(=O)[C@H](C(C)C)NC(=O)[C@H](Cc3c[nH]c4ccccc34)NC(=O)[C@H](CC(=O)O)NC(=O)[C@H](Cc3ccc(OCC(=O)O)cc3)NC(=O)[C@H](CN)NC(=O)CSC[C@@H](C(=O)N[C@@H](C)C(N)=O)NC(=O)[C@H]([C@@H](C)O)NC(=O)[C@H](C(C)C)NC2=O)c1 [Compound 1470] ({CH2CO}-[Dap]Y(Carboxymethyl)DWV[Bip]E[Orn][dL][Dab][Phe(3-Me)]VTCA-NH2; thioether N-14) |
| 305 nM | Cc1ccc(C[C@@H]2NC(=O)[C@H](CCN)NC(=O)[C@@H](CC(C)C)NC(=O)[C@H](CCCN)NC(=O)[C@H](CCC(=O)O)NC(=O)[C@H](Cc3ccc(-c4ccccc4)cc3)NC(=O)[C@H](C(C)C)NC(=O)[C@H](Cc3c[nH]c4ccccc34)NC(=O)[C@H](CC(=O)O)NC(=O)[C@H](Cc3ccc(OCC(=O)O)cc3)NC(=O)[C@H](CN)NC(=O)CSC[C@@H](C(=O)N[C@@H](C)C(N)=O)NC(=O)[C@H]([C@@H](C)O)NC(=O)[C@H](C(C)C)NC2=O)cc1 [Compound 1471] ({CH2CO}-[Dap]Y(Carboxymethyl)DWV[Bip]E[Orn][dL][Dab][Phe(4-Me)]VTCA-NH2; thioether N-14) |
| 128 nM | CC(C)C[C@H]1NC(=O)[C@H](CCCN)NC(=O)[C@H](CCC(=O)O)NC(=O)[C@H](Cc2ccc(-c3ccccc3)cc2)NC(=O)[C@H](C(C)C)NC(=O)[C@H](Cc2c[nH]c3ccccc23)NC(=O)[C@H](CC(=O)O)NC(=O)[C@H](Cc2ccc(OCC(=O)O)cc2)NC(=O)[C@H](CN)NC(=O)CSC[C@@H](C(=O)N[C@@H](C)C(N)=O)NC(=O)[C@H]([C@@H](C)O)NC(=O)[C@H](C(C)C)NC(=O)[C@H](Cc2ccc(Cl)cc2)NC(=O)[C@H](CCN)NC1=O [Compound 1472] ({CH2CO}-[Dap]Y(Carboxymethyl)DWV[Bip]E[Orn][dL][Dab][Phe(4-Cl)]VTCA-NH2; thioether N-14) |
| 801 nM | CC(C)C[C@H]1NC(=O)[C@H](CCCN)NC(=O)[C@H](CCC(=O)O)NC(=O)[C@H](Cc2ccc(-c3ccccc3)cc2)NC(=O)[C@H](C(C)C)NC(=O)[C@H](Cc2c[nH]c3ccccc23)NC(=O)[C@H](CC(=O)O)NC(=O)[C@H](Cc2ccc(OCC(=O)O)cc2)NC(=O)[C@H](CN)NC(=O)CSC[C@@H](C(=O)N[C@@H](C)C(N)=O)NC(=O)[C@H]([C@@H](C)O)NC(=O)[C@H](C(C)C)NC(=O)[C@H](Cc2ccc(N)cc2)NC(=O)[C@H](CCN)NC1=O [Compound 1473] ({CH2CO}-[Dap]Y(Carboxymethyl)DWV[Bip]E[Orn][dL][Dab][Phe(4-NH2)]VTCA-NH2; thioether N-14) |
| 68.6 nM | CC(C)C[C@H]1NC(=O)[C@H](CCCN)NC(=O)[C@H](CCC(=O)O)NC(=O)[C@H](Cc2ccc(-c3ccccc3)cc2)NC(=O)[C@H](C(C)C)NC(=O)[C@H](Cc2c[nH]c3ccccc23)NC(=O)[C@H](CC(=O)O)NC(=O)[C@H](Cc2ccc(OCC(=O)O)cc2)NC(=O)[C@H](CN)NC(=O)CSC[C@@H](C(=O)N[C@@H](C)C(N)=O)NC(=O)[C@H]([C@@H](C)O)NC(=O)[C@H](C(C)C)NC(=O)[C@H](Cc2cccc3ccccc23)NC(=O)[C@H](CCN)NC1=O [Compound 1474] |
| 120 nM | CC(C)C[C@H]1NC(=O)[C@H](CCCN)NC(=O)[C@H](CCC(=O)O)NC(=O)[C@H](Cc2ccc(-c3ccccc3)cc2)NC(=O)[C@H](C(C)C)NC(=O)[C@H](Cc2c[nH]c3ccccc23)NC(=O)[C@H](CC(=O)O)NC(=O)[C@H](Cc2ccc(OCC(=O)O)cc2)NC(=O)[C@H](CN)NC(=O)CSC[C@@H](C(=O)N[C@@H](C)C(N)=O)NC(=O)[C@H]([C@@H](C)O)NC(=O)[C@H](C(C)C)NC(=O)[C@H](Cc2cccc(O)c2)NC(=O)[C@H](CCN)NC1=O [Compound 1475] ({CH2CO}-[Dap]Y(Carboxymethyl)DWV[Bip]E[Orn][dL][Dab][mTyr]VTCA-NH2; thioether N-14) |
| 33 nM | CC(C)C[C@H]1NC(=O)[C@H](CCCN)NC(=O)[C@H](CCC(=O)O)NC(=O)[C@H](Cc2ccc(-c3ccccc3)cc2)NC(=O)[C@H](C(C)C)NC(=O)[C@H](Cc2c[nH]c3ccccc23)NC(=O)[C@H](CC(=O)O)NC(=O)[C@H](Cc2ccc(OCC(=O)O)cc2)NC(=O)[C@H](CN)NC(=O)CSC[C@@H](C(=O)N[C@@H](C)C(N)=O)NC(=O)[C@H]([C@@H](C)O)NC(=O)[C@H](C(C)C)NC(=O)[C@H](Cc2cc(F)cc(F)c2)NC(=O)[C@H](CCN)NC1=O [Compound 1476] ({CH2CO}-[Dap]Y(Carboxymethyl)DWV[Bip]E[Orn][dL][Dab][Phe(3,5-F2)]VTCA-NH2; thioether N-14) |
| 144 nM | CC(C)C[C@H]1NC(=O)[C@H](CCCN)NC(=O)[C@H](CCC(=O)O)NC(=O)[C@H](Cc2ccc(-c3ccccc3)cc2)NC(=O)[C@H](C(C)C)NC(=O)[C@H](Cc2c[nH]c3ccccc23)NC(=O)[C@H](CC(=O)O)NC(=O)[C@H](Cc2ccc(OCC(=O)O)cc2)NC(=O)[C@H](CN)NC(=O)CSC[C@@H](C(=O)N[C@@H](C)C(N)=O)NC(=O)[C@H]([C@@H](C)O)NC(=O)[C@H](C(C)C)NC(=O)[C@H](Cc2cc(F)c(F)cc2F)NC(=O)[C@H](CCN)NC1=O [Compound 1477] |
| 120 nM | CC(C)C[C@H]1NC(=O)[C@H](CCCN)NC(=O)[C@H](CCC(=O)O)NC(=O)[C@H](Cc2ccc(-c3ccccc3)cc2)NC(=O)[C@H](C(C)C)NC(=O)[C@H](Cc2c[nH]c3ccccc23)NC(=O)[C@H](CC(=O)O)NC(=O)[C@H](Cc2ccc(OCC(=O)O)cc2)NC(=O)[C@H](CN)NC(=O)CSC[C@@H](C(=O)N[C@@H](C)C(N)=O)NC(=O)[C@H]([C@@H](C)O)NC(=O)[C@H](C(C)C)NC(=O)[C@H](Cc2ccc(Cl)cc2Cl)NC(=O)[C@H](CCN)NC1=O [Compound 1478] ({CH2CO}-[Dap]Y(Carboxymethyl)DWV[Bip]E[Orn][dL][Dab][Phe(2,4-Cl2)]VTCA-NH2; thioether N-14) |
| 347 nM | CC(C)C[C@H]1NC(=O)[C@H](CCCN)NC(=O)[C@H](CCC(=O)O)NC(=O)[C@H](Cc2ccc(-c3ccccc3)cc2)NC(=O)[C@H](C(C)C)NC(=O)[C@H](Cc2c[nH]c3ccccc23)NC(=O)[C@H](CC(=O)O)NC(=O)[C@H](Cc2ccc(OCC(=O)O)cc2)NC(=O)[C@H](CN)NC(=O)CSC[C@@H](C(=O)N[C@@H](C)C(N)=O)NC(=O)[C@H]([C@@H](C)O)NC(=O)[C@H](C(C)C)NC(=O)[C@H](Cc2ccc(F)cc2F)NC(=O)[C@H](CCN)NC1=O [Compound 1479] ({CH2CO}-[Dap]Y(Carboxymethyl)DWV[Bip]E[Orn][dL][Dab][Phe(2,4-F2)]VTCA-NH2; thioether N-14) |
